# Source: patent US10414811B2, “Protease-resistant lipidated GLP-1 analogs” (MEDIMMUNE LIMITED, priority 2015, dated 2019)
# Read-outs that look alike come from different tables or passages of the source. Numbered stars: 1 amine (or outer) side, 2 acyl side, 3 side chain; on linkers, the order of the positions; unused ones are H or OH. Square brackets hold non-standard residues; d marks the D form. Side chains are listed from the residue outwards. Peptide text beside a SMILES is read from it. * marks the point of attachment. C18 diacid = O=C(O)CCCCCCCCCCCCCCCCC(=O)*; γGlu = O=C(O)[C@H](CCC(=O)[*:2])N[*:1]; αMeF = C[C@](N)(Cc1ccccc1)C(=O)O; αMeK = C[C@](N)(CCCCN)C(=O)O; αMeS = C[C@](N)(CO)C(=O)O; AEEA = NCCOCCOCC(=O)O; Aib = CC(C)(N)C(=O)O
# Legend:
# [1] = target: T1, Neprilysin (Homo sapiens, UniProt P08473); assay: Proteolytic resistance to neprilysin (% remaining peptide, RP-HPLC AUC); type: in vitro ADME; conditions: 37° C., pH 8.3; for remaining at 0.5 h / remaining at 1 h / remaining at 2 h / remaining at 4 h / remaining at 8 h / remaining at 24 h: recombinant neprilysin; for remaining at 0.5 h: t = 30 min; for remaining at 1 h: t = 1 hr; for remaining at 2 h: t = 2 hr; for remaining at 4 h: t = 4 hr; for remaining at 8 h: t = 8 hr; for remaining at 24 h: t = 24 hr, read-out: Percentage remaining peptide (AUC at specified time-point by RP-HPLC) upon incubation with neprilysin, t = 24 hr
# T1 construct: purchased R&D Systems 1182-ZNC-010
# Experimental: Ratio enzyme (units):peptide (μmoles)˜1:33. […] Ratio enzyme (units):peptide (μmoles)˜1:2.5.
# 15 μL aliquots (˜15 μg initial peptide) of the peptide-enzyme mixture were periodically withdrawn (t=0, 30 mins, 1 hr, 2 hr, 4 hr, 8 hr, 24 hr) and quenched immediately by addition to an equal volume (15 μL) of 5% TFA (v/v) in 1:1 water/acetonitrile to arrest proteolytic activity. 20 μL aliquots (˜10 μg initial peptide) were analyzed by LC/MS and/or analytical RP-HPLC as follows: LC/MS method: Agilent Polaris C8-A column (4.6×100 mm, 3 micron) eluted with a linear binary gradient of 10-90% MeCN (0.1% TFA v/v) in water (0.1% TFA v/v) over 30 mins at 1.5 mL min-1 at ambient temperature with detection by both UV absorption at 210 nm and ionization using a Waters 3100 mass detector (ESI+ mode). Peptide fragments deriving from enzymatic hydrolysis were identified by molecular weight, allowing location of the site of cleavage. Analytical RP-HPLC method: Agilent Polaris C8-A column (4.6×100 mm, 3 micron) eluted with a linear binary gradient of 10-90% MeCN (0.1% TFA v/v) in water (0.1% TFA v/v) over either 10 or 15 mins at 1.5 mL min^−1 at 40° C. with detection by UV absorption at 210 nm. Manual integration (AUC) allowed estimation of remaining intact peptide over the time course of the experiment.
# 25 μL aliquots (˜6 μg initial peptide) were analyzed by LC/MS and/or analytical RP-HPLC as follows: LC/MS method: Agilent Polaris C8-A column (4.6×100 mm, 3 micron) eluted with a linear binary gradient of 10-90% MeCN (0.1% TFA v/v) in water (0.1% TFA v/v) over 30 mins at 1.5 mL min^−1 at ambient temperature with detection by both UV absorption at 210 nm and ionization using a Waters 3100 mass detector (ESP mode). Peptide fragments deriving from enzymatic hydrolysis were identified by molecular weight, allowing location of the site of cleavage. Analytical RP-HPLC method: Agilent Polaris C8-A column (4.6×100 mm, 3 micron) eluted with a linear binary gradient of 10-90% MeCN (0.1% TFA v/v) in water (0.1% TFA v/v) over either 10 or 15 mins at 1.5 mL min^−1 at 40° C. with detection by UV absorption at 210 nm. Manual integration (AUC) allowed estimation of remaining intact peptide over the time course of the experiment.
# [2] = target: T2, pepsin (Sus scrofa, UniProt P00791); assay: Proteolytic resistance to pepsin (% remaining intact peptide, RP-HPLC AUC); type: in vitro ADME; conditions: pig, porcine pepsin, 37° C., pH 2.0, read-out: Percentage remaining intact peptide (AUC by RP-HPLC) upon incubation with pepsin; for remaining at 0.5 h: t = 30 min; for remaining at 1 h: t = 1 hr; for remaining at 2 h: t = 2 hr; for remaining at 4 h: t = 4 hr; for remaining at 8 h: t = 8 hr; for remaining at 24 h: t = 24 hr
# T2 construct: purchased Sigma P7012
# Experimental: Lyophilized porcine […] pepsin (Sigma: P7012) was reconstituted to afford a solution of 200 μg/mL (˜500 units/mL) in assay buffer (0.1 M HCl, pH 2.0) to give the enzyme stock solution. […] Ratio enzyme (units):peptide (μmoles)˜1:6. […] Ratio enzyme (units):peptide (μmoles)˜2:1.
# Lyophilized porcine […] pepsin (Sigma: P7012) was reconstituted to 200 μg/mL (˜500 units/mL) in assay buffer (1.0 M HCl, pH 2.0) to give the enzyme stock solution.
# [3] = target: T3, human glucose-dependent insulinotropic peptide receptor (GIPR) (Homo sapiens, UniProt P48546); assay: cAMP assay, human GIPR cells; type: cell-based; conditions: cAMP assay
# T3 construct: expressed in transfected cells
# T3 sequence (P48546 22-466): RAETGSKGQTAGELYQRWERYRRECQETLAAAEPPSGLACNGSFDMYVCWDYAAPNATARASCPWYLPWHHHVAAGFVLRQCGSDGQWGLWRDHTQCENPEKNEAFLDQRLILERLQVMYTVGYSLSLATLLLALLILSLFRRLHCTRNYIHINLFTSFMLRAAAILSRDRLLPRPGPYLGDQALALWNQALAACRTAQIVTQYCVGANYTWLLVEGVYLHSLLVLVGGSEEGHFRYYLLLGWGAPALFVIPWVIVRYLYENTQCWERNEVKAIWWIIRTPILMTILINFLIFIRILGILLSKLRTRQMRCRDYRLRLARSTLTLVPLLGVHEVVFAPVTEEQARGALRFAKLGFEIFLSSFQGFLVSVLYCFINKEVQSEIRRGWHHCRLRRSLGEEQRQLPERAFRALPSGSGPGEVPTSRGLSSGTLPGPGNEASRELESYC
# Outline: (§1)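 Peptide-stimulated cAMP measured by two-step HTRF after a 30 min room-temperature incubation with receptor-expressing cells (hGLP-1R, hGIPR at 1×10^5 cells/ml; hGCGR at 2×10^5 cells/ml). Duplicate dilutions; EC50 from 4-parameter logistic fit of % Delta F.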
# [4] = target: T4, human GLP-1 receptor (GLP-1R) (Homo sapiens, UniProt P43220); assay: cAMP assay, human GLP-1R cells; type: cell-based
# T4 construct: expressed in transfected cells
# Outline: as §1
# [5] = target: T5, trypsin (Sus scrofa, UniProt P00761); assay: Proteolytic resistance to trypsin (% remaining intact peptide, RP-HPLC AUC); type: in vitro ADME; conditions: pig, porcine pancreatic trypsin, 37° C., pH 7.8, read-out: Percentage remaining intact peptide (AUC by RP-HPLC) upon incubation with trypsin; for remaining at 0.5 h: t = 30 min; for remaining at 1 h: t = 1 hr; for remaining at 2 h: t = 2 hr; for remaining at 4 h: t = 4 hr; for remaining at 8 h: t = 8 hr; for remaining at 24 h: t = 24 hr
# T5 construct: purchased Sigma T7409
# From the text: Ratio enzyme (units):peptide (μmoles)˜1:11. […] Ratio enzyme (units):peptide (μmoles)˜1.2:1.
# [6] = target: T6, GLP-1R (INS1e assay) (Rattus norvegicus, UniProt P32301); assay: INS1e assay, cAMP activity at GLP-1R; type: cell-based; conditions: mono-lipidated peptides
# T6 construct: endogenous in cells; host or cells: INS-1E cells
# T6 sequence (P32301 22-463): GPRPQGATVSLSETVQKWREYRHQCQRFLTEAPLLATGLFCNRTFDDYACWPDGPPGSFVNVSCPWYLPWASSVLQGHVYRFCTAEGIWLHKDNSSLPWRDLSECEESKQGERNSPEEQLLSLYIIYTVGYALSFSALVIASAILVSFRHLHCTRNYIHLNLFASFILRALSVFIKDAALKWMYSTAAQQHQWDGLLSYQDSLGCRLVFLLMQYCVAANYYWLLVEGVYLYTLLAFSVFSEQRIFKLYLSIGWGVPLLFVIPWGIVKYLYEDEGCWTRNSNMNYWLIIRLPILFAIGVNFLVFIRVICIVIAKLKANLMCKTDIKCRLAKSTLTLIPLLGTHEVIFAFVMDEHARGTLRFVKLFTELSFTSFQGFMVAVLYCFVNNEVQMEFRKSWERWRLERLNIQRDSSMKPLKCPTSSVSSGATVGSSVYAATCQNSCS
# Outline: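 It pairs cAMP-d2 acceptor with anti-cAMP cryptate donor, both prepared 1/20 in conjugate/lysis buffer, applied as a two-step protocol.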
# [7] = target: T7, human glucagon receptor (GCGR) (Homo sapiens, UniProt P47871); assay: cAMP assay, human GCGR cells; type: cell-based; conditions: cAMP assay
# T7 construct: expressed in transfected cells
# Outline: as §1
# [8] = first determination (n1), read-out: Primary assay EC50 GIP-R (n1)
# [9] = second determination (n2), read-out: Primary assay EC50 GIP-R (n2)
# [10] = cAMP assay, first determination (n1), read-out: Primary assay EC50 GLP-1R n1
# [11] = cAMP assay, second determination (n2), read-out: Primary assay EC50 GLP-1R n2
# [12] = mean of n1 and n2, read-out: Mean pM GLP-1R
# [13] = mean of n1 and n2, read-out: INS1e assay EC50 Mean pM GLP-1R
# [14] = replicate n1, read-out: INS1e assay EC50 GLP-1R n1
# [15] = replicate n2, read-out: INS1e assay EC50 GLP-1R n2
# [16] = first determination (n1), read-out: Primary assay EC50 Gluc-R (n1)
# [17] = second determination (n2), read-out: Primary assay EC50 Gluc-R (n2)
# T2 sequence (P00791 60-385): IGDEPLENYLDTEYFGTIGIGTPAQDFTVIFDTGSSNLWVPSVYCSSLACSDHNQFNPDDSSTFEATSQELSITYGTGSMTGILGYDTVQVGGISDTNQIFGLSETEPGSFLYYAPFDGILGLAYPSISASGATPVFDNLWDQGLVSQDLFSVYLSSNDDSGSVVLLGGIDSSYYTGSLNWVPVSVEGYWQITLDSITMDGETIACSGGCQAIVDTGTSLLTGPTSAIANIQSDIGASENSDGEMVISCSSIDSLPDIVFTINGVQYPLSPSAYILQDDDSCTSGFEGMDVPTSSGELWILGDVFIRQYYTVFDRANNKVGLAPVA
# T5 sequence (P00761 9-231): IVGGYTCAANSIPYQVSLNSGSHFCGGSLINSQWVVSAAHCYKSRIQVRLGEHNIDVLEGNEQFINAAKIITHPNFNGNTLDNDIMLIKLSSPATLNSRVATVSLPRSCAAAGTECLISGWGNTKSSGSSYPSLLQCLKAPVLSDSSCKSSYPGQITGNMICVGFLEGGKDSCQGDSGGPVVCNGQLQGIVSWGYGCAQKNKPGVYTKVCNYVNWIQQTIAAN
# T1 sequence (P08473 whole entry): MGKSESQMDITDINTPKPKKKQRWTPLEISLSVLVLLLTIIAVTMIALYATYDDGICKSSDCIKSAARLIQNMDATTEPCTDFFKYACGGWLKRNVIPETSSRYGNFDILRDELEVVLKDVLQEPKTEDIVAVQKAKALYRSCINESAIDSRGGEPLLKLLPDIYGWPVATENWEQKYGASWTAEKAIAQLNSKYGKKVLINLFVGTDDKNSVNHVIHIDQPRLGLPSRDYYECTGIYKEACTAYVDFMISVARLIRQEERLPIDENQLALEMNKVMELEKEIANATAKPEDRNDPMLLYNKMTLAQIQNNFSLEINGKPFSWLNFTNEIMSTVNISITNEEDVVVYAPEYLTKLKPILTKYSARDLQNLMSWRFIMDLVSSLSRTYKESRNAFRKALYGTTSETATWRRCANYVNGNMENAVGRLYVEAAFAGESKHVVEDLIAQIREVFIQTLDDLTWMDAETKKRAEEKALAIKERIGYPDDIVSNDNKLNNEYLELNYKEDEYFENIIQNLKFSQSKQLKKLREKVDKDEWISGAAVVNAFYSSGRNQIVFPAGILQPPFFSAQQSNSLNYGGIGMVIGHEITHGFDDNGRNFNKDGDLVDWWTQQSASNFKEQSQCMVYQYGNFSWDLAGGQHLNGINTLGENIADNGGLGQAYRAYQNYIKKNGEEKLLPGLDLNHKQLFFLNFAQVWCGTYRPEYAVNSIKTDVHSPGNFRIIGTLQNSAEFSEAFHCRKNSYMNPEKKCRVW
# T4 sequence (P43220 24-463): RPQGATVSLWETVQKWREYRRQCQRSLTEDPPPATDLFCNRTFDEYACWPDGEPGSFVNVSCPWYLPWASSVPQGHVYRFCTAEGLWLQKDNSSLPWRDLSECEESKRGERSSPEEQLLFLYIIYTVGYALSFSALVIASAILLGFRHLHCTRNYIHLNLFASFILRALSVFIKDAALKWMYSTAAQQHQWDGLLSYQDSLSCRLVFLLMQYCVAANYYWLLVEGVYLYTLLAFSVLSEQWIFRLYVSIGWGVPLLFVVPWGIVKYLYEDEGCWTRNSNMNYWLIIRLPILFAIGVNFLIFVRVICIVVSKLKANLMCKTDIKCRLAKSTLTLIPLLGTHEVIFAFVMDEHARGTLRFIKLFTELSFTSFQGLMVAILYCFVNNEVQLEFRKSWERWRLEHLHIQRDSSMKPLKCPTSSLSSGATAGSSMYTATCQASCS
# T7 sequence (P47871 26-477): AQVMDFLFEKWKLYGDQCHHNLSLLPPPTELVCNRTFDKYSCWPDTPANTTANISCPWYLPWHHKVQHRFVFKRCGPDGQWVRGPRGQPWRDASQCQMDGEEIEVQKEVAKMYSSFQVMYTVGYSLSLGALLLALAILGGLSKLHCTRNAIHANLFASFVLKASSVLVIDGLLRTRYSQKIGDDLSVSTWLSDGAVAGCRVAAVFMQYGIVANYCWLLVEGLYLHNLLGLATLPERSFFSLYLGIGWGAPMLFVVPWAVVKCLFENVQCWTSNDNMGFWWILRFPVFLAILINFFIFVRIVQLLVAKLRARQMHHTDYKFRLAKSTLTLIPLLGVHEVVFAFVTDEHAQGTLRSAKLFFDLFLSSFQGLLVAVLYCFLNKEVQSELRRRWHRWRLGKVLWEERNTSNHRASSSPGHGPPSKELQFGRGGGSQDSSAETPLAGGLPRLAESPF
remaining at 0.5 h [1] [%],remaining at 1 h [1] [%],remaining at 2 h [1] [%],remaining at 4 h [1] [%],remaining at 8 h [1] [%],remaining at 24 h [1] [%],"Percentage remaining peptide (AUC at specified time-point by RP-HPLC) upon incubation with neprilysin, t = 0 [1] [%]",remaining at 0.5 h [2] [%],remaining at 1 h [2] [%],remaining at 2 h [2] [%],remaining at 4 h [2] [%],remaining at 8 h [2] [%],remaining at 24 h [2] [%],"EC50 [3, 8] [nM]","EC50 [3, 9] [nM]","EC50 [4, 10] [pM]","EC50 [4, 11] [pM]","EC50 [4, 12] [pM]",remaining at 0.5 h [5] [%],remaining at 1 h [5] [%],SMILES,further results
96.8,96.5,93,93.9,89.5,90,100,89.1,80.8,71.4,60.6,45.9,9.4,≥ 26,≥ 26,3.9,8.2,6.1,93,89.2,CC[C@H](C)[C@H](NC(=O)[C@H](Cc1ccccc1)NC(=O)[C@H](CCC(=O)O)NC(=O)[C@H](CCCCNC(=O)COCCOCCNC(=O)COCCOCCNC(=O)CC[C@H](NC(=O)CCCCCCCCCCCCCCCCC(=O)O)C(=O)O)NC(=O)[C@H](C)NC(=O)[C@H](C)NC(=O)[C@H](CCC(=O)O)NC(=O)CNC(=O)[C@H](CCC(=O)O)NC(=O)[C@H](CC(C)C)NC(=O)[C@](C)(Cc1ccccc1)NC(=O)[C@H](CO)NC(=O)[C@](C)(CO)NC(=O)[C@@H](NC(=O)[C@H](CC(=O)O)NC(=O)[C@H](CO)NC(=O)[C@@H](NC(=O)[C@](C)(Cc1ccccc1)NC(=O)[C@H](CO)NC(=O)CNC(=O)[C@H](CCC(=O)O)NC(=O)C(C)(C)NC(=O)[C@@H](N)Cc1c[nH]cn1)[C@@H](C)O)C(C)C)C(=O)N[C@@H](C)C(=O)N[C@@](C)(Cc1ccccc1)C(=O)N[C@H](C(=O)N[C@H](C(=O)N[C@@](C)(CCCCN)C(=O)NCC(=O)NCC(N)=O)C(C)C)C(C)C [compound 48],"remaining at 2 h [5]: 83.5%; remaining at 4 h [5]: 75.6%; remaining at 8 h [5]: 68.9%; remaining at 24 h [5]: 56.5%; EC50 [6, 13]: 800 pM; EC50 [6, 14]: 729 pM; EC50 [6, 15]: 871 pM; EC50 [7, 16]: ≥ 26 nM; EC50 [7, 17]: ≥ 26 nM"
97.4,95.4,96.4,95.4,93.9,94.9,100,96.5,94.7,92.2,88.2,86,85.3,≥ 25,≥ 25,22.1,15.5,18.8,92.3,86.2,CC[C@H](C)[C@H](NC(=O)[C@H](Cc1ccccc1)NC(=O)[C@H](CCC(=O)O)NC(=O)[C@](C)(CCCCN)NC(=O)[C@H](C)NC(=O)[C@H](C)NC(=O)[C@H](CCC(=O)O)NC(=O)CNC(=O)[C@H](CCC(=O)O)NC(=O)[C@H](CC(C)C)NC(=O)[C@](C)(Cc1ccccc1)NC(=O)[C@H](CO)NC(=O)[C@](C)(CO)NC(=O)[C@@H](NC(=O)[C@H](CC(=O)O)NC(=O)[C@H](CO)NC(=O)[C@@H](NC(=O)[C@](C)(Cc1ccccc1)NC(=O)[C@H](CO)NC(=O)CNC(=O)[C@H](CCC(=O)O)NC(=O)C(C)(C)NC(=O)[C@@H](N)Cc1c[nH]cn1)[C@@H](C)O)C(C)C)C(=O)N[C@@H](CCCCNC(=O)COCCOCCNC(=O)COCCOCCNC(=O)CC[C@H](NC(=O)CCCCCCCCCCCCCCCCC(=O)O)C(=O)O)C(=O)N[C@@H](Cc1c[nH]c2ccccc12)C(=O)N[C@H](C(=O)N[C@H](C(=O)N[C@@H](CCC(=O)O)C(=O)NCC(=O)NCC(N)=O)C(C)C)C(C)C [compound 68] (H-H[Aib]EGS[αMeF]TSDV[αMeS]S[αMeF]LEGEAA[αMeK]EFIK([AEEA-AEEA-γGlu-C18 diacid])WVVEGG-NH2; N-terminus assumed),"remaining at 2 h [5]: 76.8%; remaining at 4 h [5]: 48.6%; remaining at 8 h [5]: 39.8%; remaining at 24 h [5]: 27.4%; EC50 [6, 13]: 3780 pM; EC50 [6, 14]: 2690 pM; EC50 [6, 15]: 4870 pM; EC50 [7, 16]: ≥ 25 nM; EC50 [7, 17]: ≥ 25 nM"
